Active and inactive are the calls of the source. No cut-off for these calls is given here.
Legend:
C6 [1] = test: Upregulation of Syp production in rat C6 cells co-cultured with N2a cells at 10 to 50 uM incubated for 24 hrs followed by cell transfer to N2a cells by Western blot analysis; assay type: functional, cell-based; settings: dose 10-50 µM
C6 [2] = test: Upregulation of NGF production in rat C6 cells co-cultured with N2a cells at 10 to 50 uM incubated for 24 hrs followed by cell transfer to N2a cells by Western blot analysis; assay type: functional, cell-based; settings: dose 10-50 µM
[3] = Neurotrophic activity in […] N2a cells assessed as increase in NGF-mediated neurite outgrowth at 25 uM incubated for 24 hrs by cell imaging analysis relative to control; assay type: functional
C6 [4] = test: Neurotrophic activity in rat C6 cells assessed as NGF production at 10 to 50 uM incubated for 24 hrs by ELISA; assay type: functional, cell-based; settings: dose 10-50 µM
[5] = Neurotrophic activity in […] N2a cells assessed as increase in NGF-mediated neurite outgrowth at 10 uM incubated for 24 hrs by cell imaging analysis relative to control; assay type: functional
C6 [6] = test: Upregulation of BDNF production in rat C6 cells co-cultured with N2a cells at 10 to 50 uM incubated for 24 hrs followed by cell transfer to N2a cells by Western blot analysis; assay type: functional, cell-based; settings: dose 10-50 µM

Compound | Activity (C6 [1]) | Activity (C6 [2]) | Activity [3] [%] | Activity (C6 [4]) | Activity [5] [%] | Activity (C6 [6])
COc1cc2c(c(O)c1C/C=C(\C)CCC=C(C)C)C(=O)N(CCc1ccccc1)C2 | inactive | Active | 116.82 | Active |  | 
CC1=C(/C=C/C(C)=C/C=C/C(C)=C/C(=O)O)C(C)(C)CCC1 [TRETINOIN] |  |  |  |  | 112.08 | 
COc1cc2c(c(O)c1C/C=C(\C)CC/C=C(\C)C(=O)O)COC2=O | inactive | Active |  | Active |  | Active
COc1cc2c(c(O)c1CCO)CN(CCc1ccccc1)C2=O | inactive | Active | 122.82 | Dose-dependent effect |  | Active

Reference: ChEMBL document CHEMBL4715868, “Neurotrophic isoindolinones from the fruiting bodies of Hericium erinaceus” (2021)
